How the values were obtained:
[1] = test system: RKO (RKOp27) human colon adenocarcinoma cells; assay: Alamar Blue cell viability assay, anti-proliferative/cytotoxic activity on proliferating RKO subclones; type: cell-based; settings: RKOp27, 72 h, RKO p27 uninduced (proliferating) cells, value = class bound given in Table A, read-out: −logIC50 RKO p27 uninduced (proliferating) (converted)
Procedure, shortened: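 Alamar Blue fluorescence (ex 544, em 590 nm) after 72 h compound exposure at 37 °C, 5% CO2, normalised to untreated controls set at 100%. Cells were seeded at 5000 per well and dosed 24 h later with serial semi-logarithmic dilutions in 10% FCS DMEM, four replicates each. −log IC50 [mol/l] was derived from concentration-effect curves.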

[2] = test system: subclones of RKO colon adenocarcinoma cells (RKOp27 or RKOp21) arrested by Ponasterone A; assay: Alamar Blue cell viability assay, cell cycle specific mode of action: cells arrested by ectopic p27Kip1 induced by Ponasterone A versus proliferating cells; type: cell-based; settings: Homo sapiens, RKO p27 induced (arrested) cells, 10 μM Ponasterone A, 72 hours, value = class bound given in Table A, read-out: −logIC50 RKO p27 induced (arrested) (converted)
Procedure, shortened: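 Viability of proliferating versus Ponasterone A (10 μM)-arrested RKOp27/RKOp21 cells after 72 h compound exposure at 37° C, in quadruplicate. Read-out is Alamar Blue fluorescence (544/590 nm) normalised to untreated cells = 100%; values as −log IC50.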

IC50 [2] [nM]	Compound	IC50 [1] [nM]
≥ 50100	CCOc1ccccc1CCC(=O)Nc1sc2c(c1C#N)CCC(COC(=O)NCc1cncn1C)C2 (stereo not shown) [Example 177, (3-Methyl-3H-imidazol-4-ylmethyl)-carbamic acid 3-cyano-2-[3-(2-ethoxy-phenyl)-propanoylamino]-4,5,6,7-tetrahydro-benzo[b]thiophen-6-ylmethyl ester]	≤ 501
≥ 50100	CC(CC(=O)Nc1sc2c(c1C#N)CCC(COC(=O)NCc1cccn1C)C2)c1ccccc1 (stereo not shown) [Example 319, (1-Methyl-1H-pyrrol-2-ylmethyl)-carbamic acid 3-cyano-2-(3-phenyl-butanoylamino)-4,5,6,7-tetrahydro-benzo[b] thiophen-6-ylmethyl ester]	≤ 501
≥ 100000	N#Cc1c(NC(=O)/C=C/c2cccnc2)sc2c1CCC(COC(=O)N1CCCCC1)C2 (stereo not shown) [Example 83, Piperidine-1-carboxylic acid 3-cyano-2-((E)-3-pyridin-3-yl-allanoylamino)-4,5,6,7-tetrahydro-benzo[b]thiophen-6-ylmethyl ester]	≤ 501
≥ 100000	Cc1cc(CNC(=O)OCC2CCc3c(sc(NC(=O)CC(C)c4cccnc4)c3C#N)C2)no1 (stereo not shown) [Example 282, (5-Methyl-isoxazol-3-ylmethyl)-carbamic acid 3-cyano-2-(3-pyridin-3-yl-butanoylamino)-4,5,6,7-tetrahydro-benzo[b]thiophen-6-ylmethyl ester]	≤ 501
≥ 100000	CCOc1ccccc1CCC(=O)Nc1sc2c(c1C#N)CCC(OC(=O)NCc1cnoc1C)C2 (stereo not shown) [Example 204, (5-Methyl-isoxazol-4-ylmethyl)-carbamic acid 3-cyano-2-[3-(2-ethoxy-phenyl)-propanoylamino]-4,5,6,7-tetrahydro-benzo[b]thiophen-6-yl ester]	≤ 501
≥ 100000	N#Cc1c(NC(=O)/C=C/c2cccnc2)sc2c1CCC(COC(=O)NCC1CCCO1)C2 (stereo not shown) [Example 63, (Tetrahydro-furan-2-ylmethyl)-carbamic acid 3-cyano-2-((E)-3-pyridin-3-yl-allanoylamino)-4,5,6,7-tetrahydro-benzo[b]thiophen-6-ylmethyl ester]	501 to 2000
≥ 100000	CCNC(=O)OC[C@H]1CCc2c(sc(NC(=O)CCc3cccnc3)c2C#N)C1 [Example 156a, (S)-Ethyl-carbamic acid 3-cyano-2-(3-pyridin-3-yl-propanoylamino)-4,5,6,7-tetrahydro-benzo[b]thiophen-6-ylmethyl ester]	501 to 2000
≥ 100000	COC(=O)OC1CCc2c(sc(NC(=O)/C=C/c3cccnc3)c2C#N)C1 (stereo not shown) [Example 55, Carbonic acid 3-cyano-2-((E)-3-pyridin-3-yl-allanoylamino)-4,5,6,7-tetrahydro-benzo[b]thiophen-6-yl ester methyl ester]	≤ 501
≥ 100000	COc1cccc(C(C)CC(=O)Nc2sc3c(c2C#N)CCC(OC(=O)NCc2cc(C)no2)C3)c1 (stereo not shown) [Example 362, (3-Methyl-isoxazol-5-ylmethyl)-carbamic acid 3-cyano-2-[3-(3-methoxy-phenyl)-butanoyl-amino]-4,5,6,7-tetrahydro-benzo[b]thiophen-6-yl ester]	501 to 2000
≥ 100000	N#Cc1c(NC(=O)/C=C/c2cccnc2)sc2c1CCC(COC(=O)N1CC[C@H](O)C1)C2 (stereo partly drawn) [Example 144, (S)-3-Hydroxy-pyrrolidine-1-carboxylic acid 3-cyano-2-((E)-3-pyridin-3-yl-allanoylamino)-4,5,6,7-tetrahydro-benzo[b]thiophen-6-ylmethyl ester]	≤ 501
≥ 50100	CCn1nccc1CNC(=O)OCC1CCc2c(sc(NC(=O)CC(C)c3ccccc3)c2C#N)C1 (stereo not shown) [Example 322, (2-Ethyl-2H-pyrazol-3-ylmethyl)-carbamic acid 3-cyano-2-(3-phenyl-butanoylamino)-4,5,6,7-tetrahydro-benzo[b] thiophen-6-ylmethyl ester]	≤ 501
≥ 10000	CCOc1ccccc1CCC(=O)Nc1sc2c(c1C#N)CCC(OC(=O)NCc1cncn1C)C2 (stereo not shown) [Example 167, (3-Methyl-3H-imidazol-4-ylmethyl)-carbamic acid 3-cyano-2-[3-(2-ethoxy-phenyl)-propanoylamino]-4,5,6,7-tetrahydro-benzo[b]thiophen-6-yl ester]	≤ 501
≥ 100000	COc1cccc(CCC(=O)Nc2sc3c(c2C#N)CCC(OC(=O)NCc2nccn2C)C3)c1 (stereo not shown) [Example 261, (1-Methyl-1H-imidazol-2-ylmethyl)-carbamic acid 3-cyano-2-[3-(3-methoxy-phenyl)-propanoylamino]-4,5,6,7-tetrahydro-benzo[b]thiophen-6-yl ester]	≤ 501
≥ 100000	N#Cc1c(NC(=O)/C=C/c2cccnc2)sc2c1CCC(OC(=O)N1CCC(O)C1)C2 (stereo not shown) [Example 76, 3-Hydroxy-pyrrolidine-1-carboxylic acid 3-cyano-2-((E)-3-pyridin-3-yl-allanoylamino)-4,5,6,7-tetrahydro-benzo[b]thiophen-6-yl ester]	≤ 501
≥ 100000	COc1cccc(CCC(=O)Nc2sc3c(c2C#N)CCC(COC(=O)NCc2cn(C)cn2)C3)c1 (stereo not shown) [Example 238, (1-Methyl-1H-imidazol-4-ylmethyl)-carbamic acid 3-cyano-2-[3-(3-methoxy-phenyl)-propanoylamino]-4,5,6,7-tetrahydro-benzo[b]thiophen-6-ylmethyl ester]	501 to 2000
≥ 100000	N#Cc1c(NC(=O)/C=C/c2cccnc2)sc2c1CCC(OC(=O)NCCO)C2 (stereo not shown) [Example 23, (2-Hydroxy-ethyl)-carbamic acid 3-cyano-2-((E)-3-pyridin-3-yl-allanoylamino)-4,5,6,7-tetrahydro-benzo[b]thiophen-6-yl ester]	501 to 2000
≥ 100000	N#Cc1c(NC(=O)/C=C/c2cccnc2)sc2c1CCC(OC(=O)N1CCCC1)C2 (stereo not shown) [Example 62, Pyrrolidine-1-carboxylic acid 3-cyano-2-((E)-3-pyridin-3-yl-allanoylamino)-4,5,6,7-tetrahydro-benzo[b]thiophen-6-yl ester]	≤ 501
≥ 100000	CCCNC(=O)OCC1CCc2c(sc(NC(=O)/C=C/c3cccnc3)c2C#N)C1 (stereo not shown) [Example 103, Propyl-carbamic acid 3-cyano-2-((E)-3-pyridin-3-yl-allanoylamino)-4,5,6,7-tetrahydro-benzo[b]thiophen-6-ylmethyl ester]	501 to 2000
≥ 100000	Cc1csc(CNC(=O)OCC2CCc3c(sc(NC(=O)/C=C/c4cccnc4)c3C#N)C2)n1 (stereo not shown) [Example 67, (4-Methyl-thiazol-2-ylmethyl)-carbamic acid 3-cyano-2-((E)-3-pyridin-3-yl-allanoylamino)-4,5,6,7-tetrahydro-benzo[b]thiophen-6-ylmethyl ester]	≤ 501
≥ 100000	N#Cc1c(NC(=O)/C=C/c2cccnc2)sc2c1CCC(OC(=O)NC1CCCC1)C2 (stereo not shown) [Example 110, Cyclopentyl-carbamic acid 3-cyano-2-((E)-3-pyridin-3-yl-allanoylamino)-4,5,6,7-tetrahydro-benzo[b]thiophen-6-yl ester]	≤ 501
≥ 50100	CCOc1ccccc1/C=C/C(=O)Nc1sc2c(c1C#N)CCC(OC(=O)NCc1cccnc1)C2 (stereo not shown) [Example 14, Pyridin-3-ylmethyl-carbamic acid 3-cyano-2-[(E)-3-(2-ethoxy-phenyl)-allanoylamino]-4,5,6,7-tetrahydro-benzo[b]thiophen-6-yl ester]	501 to 2000
≥ 100000	N#Cc1c(NC(=O)/C=C/c2cccnc2)sc2c1CC[C@@H](COC(=O)N1CCCC1)C2 [Example 68b, Pyrrolidine-1-carboxylic acid (R)-3-cyano-2-((E)-3-pyridin-3-yl-allanoylamino)-4,5,6,7-tetrahydro-benzo[b]thiophen-6-ylmethyl ester]	≤ 501
≥ 100000	CN(CC(O)CO)C(=O)OC1CCc2c(sc(NC(=O)/C=C/c3cccnc3)c2C#N)C1 (stereo not shown) [Example 126, (2,3-Dihydroxy-propyl)-methyl-carbamic acid 3-cyano-2-((E)-3-pyridin-3-yl-allanoylamino)-4,5,6,7-tetrahydro-benzo[b]thiophen-6-yl ester]	501 to 2000
≥ 100000	Cc1oncc1CNC(=O)OC1CCc2c(sc(NC(=O)CC(C)c3ccccc3)c2C#N)C1 (stereo not shown) [Example 358, (5-Methyl-isoxazol-4-ylmethyl)-carbamic acid 3-cyano-2-(3-phenyl-butanoylamino)-4,5,6,7-tetrahydro-benzo[b]thiophen-6-yl ester]	≤ 501
≥ 50100	COc1cccc(C(C)CC(=O)Nc2sc3c(c2C#N)CCC(COC(=O)NCc2cccnc2)C3)c1 (stereo not shown) [Example 325, Pyridin-3-ylmethyl-carbamic acid 3-cyano-2-[3-(3-methoxy-phenyl)-butanoylamino]-4,5,6,7-tetrahydro-benzo[b]thiophen-6-ylmethyl ester]	501 to 2000
≥ 100000	CNC(=O)OC[C@@H]1CCc2c(sc(NC(=O)/C=C/c3cccnc3)c2C#N)C1 [Example 16b, Methyl-carbarnic acid (R)-3-cyano-2-((E)-3-pyridin-3-yl-allanoylamino)-4,5,6,7-tetrahydro-benzo[b]thiophen-6-ylmethyl ester]	501 to 2000
